# Measurements: patent US12440439B2, “Mesoporous sponge spicule and methods thereof” (Xiamen University, priority 2019, dated 2025)
# Experiment: Transdermal penetration enhancement experiments in vitro (Franz diffusion transdermal device, tape peeling, microplate reader)
# Assay type: in vitro ADME, pig
# Conditions: transdermal for 16 h
# Experimental: Among them, delivery system groups of the second group and the third group are saturated 30% ethanol solutions of the Coumarin 6, and delivery volumes are […].
# The aforementioned layers are divided into groups, soaked in 4 mL of a mixture of the phosphate buffer solution and methanol (a volume ratio is 1:1) to respectively extract the Coumarin 6 in a 1st layer of stratum corneum (SC1), 2nd-5th layers of stratum corneum (SC2), 6th-10th layers of stratum corneum (SC3), the epidermal layer (Epi), and the dermal layer (Der) at 200 r/min (revolutions per minutes (rpm)) at room temperature (e.g., 20-30° C.).
smiles,measurement,setting,value
"CCN(CC)c1ccc2cc(-c3nc4ccccc4s3)c(=O)oc2c1 [Control, Coumarin 6]",Content of the Coumarin 6 in SC1,1st layer of stratum corneum,0.005 ± 0.001 μg/1.77 cm^2
same,Content of the Coumarin 6 in SC2,2nd-5th layers of stratum corneum,0.009 ± 0.002 μg/1.77 cm^2
same,Content of the Coumarin 6 in SC3,6th-10th layers of stratum corneum,0.019 ± 0.003 μg/1.77 cm^2
same,"Content of the Coumarin 6, Total",all skin layers and receptor compartment,0.199 ± 0.047 μg/1.77 cm^2
same,Content of the Coumarin 6 in Der,dermal layer,0.015 ± 0.011 μg/1.77 cm^2
same,Content of the Coumarin 6 in Epi,epidermal layer,0.021 ± 0.007 μg/1.77 cm^2
same,Content of the Coumarin 6 in Rec,receptor compartment,0.130 ± 0.043 μg/1.77 cm^2
